Where two headings read alike, the source gives them in different places.
Key:
OATP1B1 [1] = target: T1, OATP1B1 (Homo sapiens, UniProt Q9Y6L6); test: Pyranine transport inhibition in A431 cells overexpressing OATP1B1; type: cell-based
T1 construct: expressed in transfected cells; host or cells: A431 cells
T1 sequence (Q9Y6L6 1-691): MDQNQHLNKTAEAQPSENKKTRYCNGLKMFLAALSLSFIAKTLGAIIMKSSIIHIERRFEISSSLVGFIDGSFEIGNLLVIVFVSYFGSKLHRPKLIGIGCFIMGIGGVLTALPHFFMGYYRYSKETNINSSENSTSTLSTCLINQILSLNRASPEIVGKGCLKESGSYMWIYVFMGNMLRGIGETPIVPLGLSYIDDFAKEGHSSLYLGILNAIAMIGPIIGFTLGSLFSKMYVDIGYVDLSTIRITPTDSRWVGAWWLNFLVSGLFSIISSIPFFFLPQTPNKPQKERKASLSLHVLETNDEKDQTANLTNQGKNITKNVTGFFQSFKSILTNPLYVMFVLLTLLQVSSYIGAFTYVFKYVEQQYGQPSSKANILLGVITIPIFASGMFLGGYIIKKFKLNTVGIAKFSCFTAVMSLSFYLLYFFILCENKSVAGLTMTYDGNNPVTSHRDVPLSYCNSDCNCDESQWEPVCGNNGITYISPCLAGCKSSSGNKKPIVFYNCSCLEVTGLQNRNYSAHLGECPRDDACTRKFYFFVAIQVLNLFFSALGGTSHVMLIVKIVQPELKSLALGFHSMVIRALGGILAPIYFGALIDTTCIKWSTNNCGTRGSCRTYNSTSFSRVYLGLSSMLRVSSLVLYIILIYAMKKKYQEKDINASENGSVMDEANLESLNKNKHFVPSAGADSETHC
Description: (§1) A431 cells overexpressing OATP1B1, OATP1B3, or OATP2B1 or their mock transfected controls were generated previously[30] and maintained in Dulbecco’s modified Eagle medium (DMEM, Gibco, Thermofisher Scientific, Waltham, MA, US) supplemented with 10% fetal bovine serum, 2 mM L-glutamine, 100 units/mL penicillin, and 100 μg/mL streptomycin. Expression and function of OATPs in the cell lines were checked regularly.
(§2) Interaction with OATP1B1, OATP1B3, or OATP2B1 was tested in an indirect transport assay using pyranine (8-hydroxypyrene-1,3,6-trisulfonic acid trisodium salt, H1529, Sigma, Merck, Budapest, Hungary) as the test substrate[31],[32] A431 cells overexpressing OATP1B1, OATP1B3, or OATP2B1 or their mock transfected controls were seeded on 96-well plates in a density of 8 × 10^4 cells per well in 200 μL of cell culture medium 1 day prior to the transport measurements. […] The transport reaction was started by the addition of 50 μL of uptake buffer containing pyranine in a final concentration of 10 μM (OATP1B1) or 20 μM (OATP1B3 and OATP2B1), and the cells were further incubated at 37 °C for 15 min (OATP1B1 and OATP2B1) or 30 min (OATP1B3). The reaction was stopped by removing the supernatant. After repeated washing with ice-cold PBS, fluorescence was determined in an Enspire plate reader (PerkinElmer, Waltham, MA) with excitation/emission wavelengths of 460/510 nm. OATP-dependent transport was calculated by extracting fluorescence measured in mock transfected cells and normalized to the fluorescence signal obtained in the absence of the tested compounds (100%). Experiments were repeated in at least three biological replicates.

OATP2B1 [2] = target: T2, OATP2B1 (Homo sapiens, UniProt O94956); test: Pyranine transport inhibition in A431 cells overexpressing OATP2B1; type: cell-based; conditions: for IC50: read-out: IC50 (μM) OATP2B1
T2 construct: expressed in transfected cells; host or cells: A431 cells
T2 sequence (O94956 1-709): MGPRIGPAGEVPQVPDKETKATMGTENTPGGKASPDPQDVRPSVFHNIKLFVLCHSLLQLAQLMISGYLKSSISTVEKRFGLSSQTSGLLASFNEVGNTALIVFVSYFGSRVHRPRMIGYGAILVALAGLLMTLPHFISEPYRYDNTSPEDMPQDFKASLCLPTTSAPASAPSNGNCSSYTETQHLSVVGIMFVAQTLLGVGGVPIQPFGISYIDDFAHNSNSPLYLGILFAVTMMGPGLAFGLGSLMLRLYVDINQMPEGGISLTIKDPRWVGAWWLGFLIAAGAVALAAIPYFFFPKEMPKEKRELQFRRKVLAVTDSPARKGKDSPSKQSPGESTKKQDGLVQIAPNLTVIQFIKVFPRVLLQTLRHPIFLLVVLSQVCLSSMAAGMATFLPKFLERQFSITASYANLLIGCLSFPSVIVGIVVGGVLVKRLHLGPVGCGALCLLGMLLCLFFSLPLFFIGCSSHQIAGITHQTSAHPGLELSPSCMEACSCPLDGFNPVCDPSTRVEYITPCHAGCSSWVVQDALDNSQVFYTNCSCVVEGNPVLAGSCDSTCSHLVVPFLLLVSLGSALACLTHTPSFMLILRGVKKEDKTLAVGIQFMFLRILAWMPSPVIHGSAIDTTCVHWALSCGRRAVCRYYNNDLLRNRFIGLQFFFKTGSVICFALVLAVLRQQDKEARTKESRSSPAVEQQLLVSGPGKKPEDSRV
Description: as §1, §2

OATP1B3 = target: T3, OATP1B3 (Homo sapiens, UniProt Q9NPD5); test: Pyranine transport inhibition in A431 cells overexpressing OATP1B3; type: cell-based; conditions: for IC50: read-out: IC50 (μM) OATP1B3
T3 construct: expressed in transfected cells; host or cells: A431 cells
T3 sequence (Q9NPD5 1-702): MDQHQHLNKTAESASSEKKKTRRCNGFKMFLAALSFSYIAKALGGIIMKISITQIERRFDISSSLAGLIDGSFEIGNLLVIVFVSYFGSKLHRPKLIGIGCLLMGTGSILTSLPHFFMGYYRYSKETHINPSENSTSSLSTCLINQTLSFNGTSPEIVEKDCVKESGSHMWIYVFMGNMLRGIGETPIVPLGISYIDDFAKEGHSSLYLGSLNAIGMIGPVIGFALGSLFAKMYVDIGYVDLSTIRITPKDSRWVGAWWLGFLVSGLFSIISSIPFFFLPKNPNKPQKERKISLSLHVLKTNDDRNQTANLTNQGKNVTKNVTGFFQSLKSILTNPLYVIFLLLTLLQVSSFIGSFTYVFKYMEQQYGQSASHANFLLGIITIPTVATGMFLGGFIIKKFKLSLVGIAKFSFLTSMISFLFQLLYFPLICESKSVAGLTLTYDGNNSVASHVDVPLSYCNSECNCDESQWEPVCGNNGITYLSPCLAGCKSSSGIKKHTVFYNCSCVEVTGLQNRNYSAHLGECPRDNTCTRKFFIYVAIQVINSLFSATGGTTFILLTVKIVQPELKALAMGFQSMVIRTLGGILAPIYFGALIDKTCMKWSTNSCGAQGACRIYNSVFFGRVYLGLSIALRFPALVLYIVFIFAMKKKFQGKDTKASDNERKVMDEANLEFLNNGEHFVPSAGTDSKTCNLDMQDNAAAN
Description: as §1, §2

OATP2B1 [3] = system: OATP2B1; parameters: method as in earlier work; conditions: ref 1 (Karlgren et al.); cited from earlier work
OATP2B1 [4] = system: OATP2B1; parameters: method as in PMID 33932771; conditions: highest affinity inhibitor reported in the literature; cited from earlier work
OATP1B1 [5] = system: OATP1B1; parameters: method as in earlier work; conditions: ref 1 (Karlgren et al.); cited from earlier work
[6] = initial three-point screen (1, 10, 100 μM), category by concentration needed for 50% inhibition, pyranine 10 μM, 15 min, pH 5.5, read-out: IC50 (μM) OATP1B1
[7] = initial three-point screen (1, 10, 100 μM), category by concentration needed for 50% inhibition, pyranine 20 μM, 15 min, pH 5.5
[8] = initial three-point screen (1, 10, 100 μM), category by concentration needed for 50% inhibition, pyranine 20 μM, 30 min, pH 5.5
[9] = full dose-response curve, eight concentrations, Hill1 fit
[10] = initial three-point screen (1, 10, 100 μM), category by concentration needed for 50% inhibition, pyranine 10 μM, 15 min, pH 5.5

SMILES | IC50 (OATP1B1 [1]; [6]) | IC50 (OATP2B1 [2]; [7]) | IC50 (OATP1B3; [8]) | IC50 (μM) OATP1B1 (OATP1B1 [1]; [10]) | IC50 (μM) OATP1B3 (OATP1B3; [8]) | other results
Cc1cc(NS(=O)(=O)c2ccc(NC(=O)Cc3coc4c(C)c(C)ccc34)cc2)nc(C)n1 [F5, Cc1cc(NS(=O)(=O)c2ccc(NC(=O)Cc3coc4c(C)c(C)ccc34)cc2)nc(C)n1] | 1 to 10 µM | 1 to 10 µM | 1 to 10 µM |  |  | 
O=C(NCc1ccc(N2CCOCC2)nc1)c1ccccc1CSc1nc2ccccc2[nH]1 [F6, O=C(NCc1ccc(nc1)N2CCOCC2)c3ccccc3CSc4nc5ccccc5[nH]4] | > 10 µM | 1 to 10 µM | > 10 µM |  |  | 
O=C(Nc1ccccc1)C1CCN(C(=O)c2cc(-c3ccccc3)nc3ccccc23)CC1 [G2, O=C(Nc1ccccc1)C2CCN(CC2)C(=O)c3cc(nc4ccccc34)c5ccccc5] | 1 to 10 µM | 1 to 10 µM | 1 to 10 µM |  |  | 
CCC(C)c1ccc(-n2c(SCC(=O)N3c4ccccc4CC3C)nc3ccccc3c2=O)cc1 (stereo not shown) [G4, CCC(C)c1ccc(cc1)N2C(=Nc3ccccc3C2=O)SCC(=O)N4C(C)Cc5ccccc45] |  | 1 to 10 µM |  | no effect | no effect | IC50 (μM) OATP1B1 (OATP1B1 [1]; [9]): no effect; IC50 (OATP2B1 [2]; [9]): ~6 µM; IC50 (μM) OATP1B3 (OATP1B3; [9]): no effect
COc1cc2c(cc1NC(=O)CN1C(=O)NC(Cc3c[nH]c4ccccc34)C1=O)oc1ccccc12 (stereo not shown) [G5, COc1cc2c(oc3ccccc23)cc1NC(=O)CN4C(=O)NC(Cc5c[nH]c6ccccc56)C4=O] | > 10 µM | 1 to 10 µM | 1 to 10 µM |  |  | 
Cc1ccc(N2C(=O)/C(=C\Nc3nc4ccccc4nc3N3CCCC3)c3ccccc3C2=O)c(C)c1 [G6, Cc1ccc(N2C(=O)\C(=C/Nc3nc4ccccc4nc3N5CCCC5)\c6ccccc6C2=O)c(C)c1] |  | > 10 µM |  | no effect | no effect | 
Cc1cc(C)c(C(=O)CSc2nc3ccccc3c(=O)n2Cc2ccc(F)cc2)c(C)c1 [H4, Cc1cc(C)c(C(=O)CSC2=Nc3ccccc3C(=O)N2Cc4ccc(F)cc4)c(C)c1] |  |  |  | no effect | no effect | IC50 (μM) OATP2B1 (OATP2B1 [2]; [7]): no effect
CC(=O)Nc1ccc(S(=O)(=O)Nc2nc3ccccc3nc2NCc2ccccc2)cc1 [H6, CC(=O)Nc1ccc(cc1)S(=O)(=O)Nc2nc3ccccc3nc2NCc4ccccc4] |  | > 10 µM |  | no effect | no effect | 
C#Cc1cccc(Nc2ncnc3cc(OCCOC)c(OCCOC)cc23)c1 [erlotinib] |  |  |  |  |  | IC50 (OATP2B1 [3]): 0.55 µM
C[C@]12CC[C@@H]3c4cc(P(=O)(O)O)ccc4CC[C@H]3[C@@H]1CCC2=O [estra-1,3,5(10)-trien-17-on-2-ylphosphonate] |  |  |  |  |  | IC50 (OATP2B1 [4]): 0.041 µM
CC[C@H](C)C(=O)O[C@H]1C[C@H](O)C=C2C=C[C@H](C)[C@H](CC[C@@H](O)C[C@@H](O)CC(=O)O)[C@H]21 [pravastatin] |  |  |  |  |  | IC50 (OATP1B1 [5]): 3.6 µM

More lines, main results first:

IC50 (OATP1B1 [1]; [6]) | IC50 (OATP2B1 [2]; [7]) | IC50 (OATP1B3; [8]) | SMILES | IC50 (μM) OATP1B1 (OATP1B1 [1]; [10]) | IC50 (μM) OATP1B3 (OATP1B3; [8]) | other results
> 10 µM | 1 to 10 µM | > 10 µM | O=C(/C=C/c1cn(Cc2ccccc2)nn1)N1CCCC(c2nc3ccccc3s2)C1 (stereo not shown) [H2, O=C(\C=C\c1cn(Cc2ccccc2)nn1)N3CCCC(C3)c4nc5ccccc5s4] |  |  | 
 | < 1 µM |  | COC(=O)c1c(NC(=O)CN2C(=O)NC3(CCc4ccccc4C3)C2=O)sc2c1CCCCC2 (stereo not shown) [H5, COC(=O)c1c2CCCCCc2sc1NC(=O)CN3C(=O)NC4(CCc5ccccc5C4)C3=O] |  |  | IC50 (OATP1B1 [1]; full dose-response curve, eight concentrations, Hill1 fit, read-out: IC50 (μM) OATP1B1): ~25 µM; IC50 at 15 min (OATP1B1 [1]; human, pH 5.5, probe pyranine 10 μM, initial three-point screen (1, 10, 100 μM), category by concentration needed for 50% inhibition, pyranine 10 μM, 15 min, pH 5.5, read-out: IC50 (μM) OATP1B1): > 10 µM; IC50 (OATP2B1 [2]; [9]): 0.39 µM; IC50 (OATP1B3; [9]): 6.95 µM; IC50 at 30 min (OATP1B3; human, pH 5.5, probe pyranine 20 μM, initial three-point screen (1, 10, 100 μM), category by concentration needed for 50% inhibition, pyranine 20 μM, 30 min, pH 5.5): > 10 µM; fold lower affinity on OATP1B3 than on OATP2B1 (OATP1B3; ratio of IC50 OATP1B3 / OATP2B1): 18 fold
